Consider 14 compounds from patent publication US8268848B2, “Cyclopropane compound” (Eisai R&D Management Co., Ltd., priority 2010, dated 2012).

Structures are written as SMILES. Read-outs that look alike come from different tables or passages of the source. Bounds are passed on as bounds.

Broadly, the IC50 is the concentration that gives 50% inhibition. Broadly, the Ki is the equilibrium dissociation constant of an inhibitor or competing ligand from its target.

Assay [1] concerns the target T1, OX2 (Homo sapiens, UniProt O43614).
T1 sequence (O43614 1-444): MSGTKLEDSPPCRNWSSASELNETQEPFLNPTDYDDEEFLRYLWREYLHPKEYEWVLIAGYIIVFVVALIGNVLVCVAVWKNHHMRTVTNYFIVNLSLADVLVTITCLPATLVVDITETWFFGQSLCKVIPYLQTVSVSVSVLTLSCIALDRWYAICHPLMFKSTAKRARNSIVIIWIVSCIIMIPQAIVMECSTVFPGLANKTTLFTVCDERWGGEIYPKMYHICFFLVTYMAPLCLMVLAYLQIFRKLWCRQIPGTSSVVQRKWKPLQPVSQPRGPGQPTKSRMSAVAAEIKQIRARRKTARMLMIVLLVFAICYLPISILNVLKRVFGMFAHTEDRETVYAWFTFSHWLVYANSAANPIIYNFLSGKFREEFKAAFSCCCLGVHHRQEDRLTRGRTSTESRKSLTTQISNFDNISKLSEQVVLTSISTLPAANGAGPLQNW
Description: Measurement of orexin receptor-binding ability ([125I]-OX-A, cell membranes, OX2). Details: expressed in transfected cells; host or cells: CHO cells (membrane preparation). The settings on record: membranes of recombinant CHO cells expressing OX2, 0.2 nM [125I]-OX-A.

In assay [2] the target is T1, OX2. Description: Measurement of antagonism (PLAP assay), OX2. It counts as cell-based. Details: expressed in transfected cells; host or cells: HEK-293 cells, expression vector pBabeCLIH. The protocol: (§1) 2. Measurement of Antagonism (PLAP Assay)
(§2) The antagonistic function of the compound of the present invention to prevent the activation of OX2 and OX1 by orexin-A (OX-A), which is a natural peptide agonist, was measured using a cell-based reporter assay. […] The cells were plated at a density of 10,000 cells/well onto a non-coated 96-well plate in Dulbecco's modified Eagle medium (Sigma Cat No. D6046:10% v/v heat-inactivated fetal bovine serum was contained). The cells were cultured at 37° C. overnight, so that they could adhere to the plate. On the following day, cells were incubated with a compound of the present invention dissolved in Dulbecco's modified Eagle medium (Sigma Cat No. A8806:0.1% w/v bovine serum albumin was contained), and added to the cell plate to reach a final concentration of 0.1% dimethyl sulfoxide.
(§3) The thus obtained mixture was incubated at room temperature for 1 hour. Thereafter, human OX-A and forskolin were dissolved in the same medium as described above, which contained fetal bovine serum albumin, and the medium was then added to the cells, resulting in a final concentration of 300 nM forskolin. Subsequently, the cells were cultured at 37° C. for approximately 18 to 24 hours.

The subject of the next assay is mice (C57BL/6NCrlCrLj). Description: Sleep experiment (EEG/EMG) in mice. The settings on record: for minimum effective dose (MED): oral, doses 0.3 to 100 mg/kg, accumulated sleep time within three hours after administration. Format: in vivo. How it is done:
As a method for measuring the influence of the present compound on sleep time, electroencephalogram (EEG) and electromyogram (EMG) measurements were carried out in mice (C57BL/6NCrlCrLj).
In order to measure brain waves and muscle signals, EEG and EMG electrode implantation was performed on individual mice, and the mice were then housed in a state in which they could freely move and habituate in individual recording cages for 1 week or longer. Thereafter, amplified EEG and EMG signals were digitally recorded.
Mice received either oral administration of vehicle or test compound in vehicle, after which sleep/wake behavior of mice was recorded for 3 hours.
For sleep analysis, automatic analysis software from Kissei Comtec Co., Ltd. was used to analyze EEG frequency and EMG activity signals in detail and to determine sleep and wake states. Thereafter, accumulated sleeping time over 3 hours was calculated.
The effect of the compound to increase sleep time was evaluated as the difference between sleeping time on the vehicle-administration day and the sleep time on the subsequent drug-administration day.
The minimum effective dose (MED; mg/kg) was obtained from accumulated sleep time of mice with three hours after the administration.

Assay [3] addresses T2, OX1 (Homo sapiens, UniProt O43613).
T2 sequence (O43613 1-425): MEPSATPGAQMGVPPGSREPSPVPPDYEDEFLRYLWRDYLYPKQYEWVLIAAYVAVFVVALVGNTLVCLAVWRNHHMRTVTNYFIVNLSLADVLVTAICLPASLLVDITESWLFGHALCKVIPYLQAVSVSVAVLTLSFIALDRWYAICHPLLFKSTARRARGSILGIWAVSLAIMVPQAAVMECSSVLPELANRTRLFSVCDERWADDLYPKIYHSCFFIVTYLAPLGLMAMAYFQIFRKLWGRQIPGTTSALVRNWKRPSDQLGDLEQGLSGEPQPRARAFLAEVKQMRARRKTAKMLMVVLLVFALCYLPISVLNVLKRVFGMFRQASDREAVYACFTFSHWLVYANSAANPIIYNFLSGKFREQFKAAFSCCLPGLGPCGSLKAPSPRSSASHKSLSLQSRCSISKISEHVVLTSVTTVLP
Description: Measurement of antagonism (PLAP assay), OX1. Details: expressed in transfected cells; host or cells: HEK-293 cells, expression vector pBabeCLIH. Format: cell-based. The protocol:
as §1, §2, §3

For assay [4], the target named is T2, OX1. Description: Measurement of orexin receptor-binding ability ([125I]-OX-A, cell membranes, OX1). Set-up: expressed in transfected cells; host or cells: CHO cells (membrane preparation).
[5] abbreviates: HEK-293 cells expressing human OX2, 1 nM human OX-A, IC50 converted by Cheng-Prusoff equation, read-out: OX2 (Ki).
The mark [6] stands for this setting: HEK-293 cells expressing human OX1, 1 nM human OX-A, IC50 converted by Cheng-Prusoff equation, read-out: OX1 (Ki).
[7] abbreviates: membranes of recombinant CHO cells expressing OX1, 0.2 nM [125I]-OX-A, read-out: OX1 (IC50).
Where [8] appears, read: mice, oral administration, difference to vehicle day, 3 hours.

For `CCc1nc(C)ncc1OC[C@@]1(c2ccccc2)C[C@H]1C(=O)Nc1ccc(C#N)cn1` [Example 120, (1R,2S)-N-(5-cyanopyridin-2-yl)-2-{[(4-ethyl-2-methylpyrimidin-5-yl)oxy]methyl}-2-phenylcyclopropanecarboxamide], the IC50 is 7 nM at OX2 [1] (read-out: OX2 (IC50)) and 123 nM on OX1 [4] (setting [7]). Further, the inhibition constant (Ki) stood at 5.7 nM on OX2 [2] (setting [5]) and 273 nM at OX1 [3] (setting [6]). For the same compound, in the assay on mice (C57BL/6NCrlCrLj) (po, 3 h), the “Sleep extended time 10 mg/kg (min/3 hrs)” value was found to be 11.5 min/3 hrs.

As to `Cc1ncc(OC[C@@]2(c3ccccc3)C[C@H]2C(=O)Nc2cccnc2)c(C)n1` [Example 66], the IC50 at OX2 [1] (read-out: OX2 (IC50)) came to 50 nM; on OX1 [4] (setting [7]), 398 nM. The Ki was 34 nM at OX2 [2] (setting [5]) and above 667 nM at OX1 [3] (setting [6]).

In the case of `COc1cccc([C@]2(COc3cnc(C)nc3C)C[C@H]2C(=O)Nc2ccc(F)cn2)c1` [Example 186, (1R,2S)-2-{[(2,4-dimethylpyrimidin-5-yl)oxy]methyl}-N-(5-fluoropyridin-2-yl)-2-(3-methoxyphenyl)cyclopropanecarboxamide], the IC50 on OX2 [1] (OX2 (IC50) nM) came to 7 nM; at OX1 [4], 22 nM. The Ki on OX2 [2] (setting [5]) was determined as 3.4 nM; at OX1 [3] (setting [6]) it was 87 nM. For the same compound, in the assay with mice (C57BL/6NCrlCrLj) (setting [8]), the “Sleep extended time 10 mg/kg (min/3 hrs)” value turned out to be 14.7 min/3 hrs.

For the compound `CCc1nc(C)ncc1OC[C@@]1(c2ccccc2)C[C@H]1C(=O)Nc1ccc(Cl)cn1` [Example 121, (1R,2S)-N-(5-chloropyridin-2-yl)-2-{[(4-ethyl-2-methylpyrimidin-5-yl)oxy]methyl}-2-phenylcyclopropanecarboxamide], the IC50 on OX2 [1] (read-out: OX2 (IC50)) stood at 3.1 nM; at OX1 [4] (setting [7]) it was 10 nM. For the same compound, the Ki on OX2 [2] (setting [5]) came to 0.3 nM; at OX1 [3] (setting [6]) it was 26 nM. In the assay on mice (C57BL/6NCrlCrLj) (po, 3 h), the “Sleep extended time 10 mg/kg (min/3 hrs)” value was 26.7 min/3 hrs.

For the compound `Cc1ncc(OC[C@@]2(c3ccccc3)C[C@H]2C(=O)Nc2ccc(F)c(C#N)c2)c(C)n1` [Example 26, (1R,2S)-N-(3-cyano-4-fluorophenyl)-2-{[(2,4-dimethylpyrimidin-5-yl)oxy]methyl}-2-phenylcyclopropanecarboxamide], the IC50 at OX2 [1] (read-out: OX2 (IC50)) came out at 3.7 nM; at OX1 [4] (setting [7]), 20 nM. Besides, the Ki came to 0.4 nM on OX2 [2] (setting [5]) and 27 nM at OX1 [3] (setting [6]).

On to `Cc1ncc(OC[C@@]2(c3ccccc3)C[C@H]2C(=O)Nc2cc(C)c(F)cn2)c(C)n1` [Example 51, (1R,2S)-2-{[(2,4-dimethylpyrimidin-5-yl)oxy]methyl}-N-(5-fluoro-4-methylpyridin-2-yl)-2-phenylcyclopropanecarboxamide], for which the values for the IC50 on OX2 [1] (OX2 (IC50) nM) and at OX1 [4] were 3.9 nM and 6.4 nM, respectively. Besides, the Ki at OX2 [2] was 1.2 nM; at OX1 [3], 29 nM. In the assay on mice (C57BL/6NCrlCrLj) (setting [8]), the “Sleep extended time 10 mg/kg (min/3 hrs)” value is reported as 23.6 min/3 hrs. The “minimum effective dose (MED)” value with mice (C57BL/6NCrlCrLj) (mice) is 3 mg/kg.

As to `Cc1ncc(OC[C@@]2(c3ccccc3)C[C@H]2C(=O)Nc2ccccc2)c(C)n1` [Example 64], the figures for the IC50 on OX2 [1] (read-out: OX2 (IC50)) and on OX1 [4] (setting [7]) were 15 nM and 74 nM, respectively. In addition, the results for the Ki at OX2 [2] (setting [5]) and on OX1 [3] (setting [6]) were 6.3 nM and 133 nM, respectively.

With `Cc1ncc(OC[C@@]2(c3cc(F)cc(F)c3)C[C@H]2C(=O)Nc2cc(C)c(F)cn2)c(C)n1` [Example 129, (1R,2S)-2-(3,5-difluorophenyl)-2-{[(2,4-dimethylpyrimidin-5-yl)oxy]methyl}-N-(5-fluoro-4-methylpyridin-2-yl)cyclopropanecarboxamide], the figures for the IC50 on OX2 [1] (read-out: OX2 (IC50)) and at OX1 [4] (setting [7]) were 1.5 nM and 1 nM, respectively. The figures for the inhibitory constant (Ki) on OX2 [2] (setting [5]) and on OX1 [3] (setting [6]) were 0.06 nM and 0.97 nM, respectively. Besides, in the assay with mice (C57BL/6NCrlCrLj) (po, 3 h), the “Sleep extended time 10 mg/kg (min/3 hrs)” value was 30.0 min/3 hrs.

Turning to `Cc1ncc(OC[C@@]2(c3ccccc3)C[C@H]2C(=O)Nc2cc(C)c(Cl)cn2)c(C)n1` [Example 45, (1R,2S)-N-(5-chloro-4-methylpyridin-2-yl)-2-{[(2,4-dimethylpyrimidin-5-yl)oxy]methyl}-2-phenylcyclopropanecarboxamide], the values for the IC50 at OX2 [1] (read-out: OX2 (IC50)) and at OX1 [4] (setting [7]) were 6.2 nM and 13.9 nM, respectively. In addition, the inhibition constant Ki on OX2 [2] (setting [5]) stood at 0.45 nM; on OX1 [3] (setting [6]) it was 19 nM. Besides, the “Sleep extended time 10 mg/kg (min/3 hrs)” value with mice (C57BL/6NCrlCrLj) (po, 3 h) was determined as 15.2 min/3 hrs.

Turning to `COCc1nc(C)ncc1OC[C@@]1(c2ccccc2)C[C@H]1C(=O)Nc1ccc(Cl)cn1` [Example 139, (1R,2S)-N-(5-chloropyridin-2-yl)-2-{[(4-(methoxymethyl)-2-methylpyrimidin-5-yl)oxy]methyl}-2-phenylcyclopropanecarboxamide], the IC50 on OX2 [1] (read-out: OX2 (IC50)) turned out to be 3.3 nM; at OX1 [4] (setting [7]) it was 22 nM. The Ki on OX2 [2] (setting [5]) stood at 1.7 nM; on OX1 [3] (setting [6]), 113 nM.

For `Cc1ncc(OC[C@@]2(c3ccccc3)C[C@H]2C(=O)Nc2ccc(F)cn2)c(C)n1` [Example 1, (1R,2S)-2-{[(2,4-dimethylpyrimidin-5-yl)oxy]methyl}-N-(5-fluoropyridin-2-yl)-2-phenylcyclopropanecarboxamide], the IC50 turned out to be 6.8 nM on OX2 [1] (OX2 (IC50) nM) and 139 nM on OX1 [4] (setting [7]). Moreover, the Ki on OX2 [2] turned out to be 10 nM; on OX1 [3] (setting [6]), 157 nM. Moreover, the “Sleep extended time 10 mg/kg (min/3 hrs)” value with mice (C57BL/6NCrlCrLj) (setting [8]) stood at 18.3 min/3 hrs. Further, the “minimum effective dose (MED)” value in the assay with mice (C57BL/6NCrlCrLj) (mice) was determined as 30 mg/kg.

As for `Cc1ncc(OC[C@@]2(c3ccc(F)c(F)c3)C[C@H]2C(=O)Nc2cc(C)c(F)cn2)c(C)n1` [Example 164, (1R,2S)-2-(3,4-difluorophenyl)-2-{[(2,4-dimethylpyrimidin-5-yl)oxy]methyl}-N-(5-fluoro-4-methylpyridin-2-yl)cyclopropanecarboxamide], the half-maximal inhibitory concentration (IC50) at OX2 [1] (read-out: OX2 (IC50)) stood at 6 nM; at OX1 [4] (setting [7]), 3 nM. The Ki on OX2 [2] (setting [5]) was determined as 0.087 nM; on OX1 [3] (setting [6]), 0.93 nM. Besides, the “Sleep extended time 10 mg/kg (min/3 hrs)” value in the assay on mice (C57BL/6NCrlCrLj) (po, 3 h) turned out to be 48.4 min/3 hrs.

With `COc1cncc(NC(=O)[C@@H]2C[C@@]2(COc2cnc(C)nc2C)c2ccccc2)c1` [Example 61], the IC50 on OX2 [1] (read-out: OX2 (IC50)) worked out at 16 nM; on OX1 [4] (setting [7]), 874 nM. Further, the Ki on OX2 [2] (setting [5]) is 26 nM; at OX1 [3] (setting [6]) it was above 667 nM.

In the case of `Cc1ncc(OC[C@@]2(c3ccccc3)C[C@H]2C(=O)Nc2ccccn2)c(C)n1` [Example 65], the IC50 on OX2 [1] (OX2 (IC50) nM) amounted to 81 nM; at OX1 [4] (setting [7]) it was 1030 nM. Besides, the inhibition constant (Ki) at OX2 [2] is 60 nM; on OX1 [3] (setting [6]), above 667 nM.
